In data set [1] the test system is serum proteins. As to conditions: cited from earlier work; for % PB: marker molecules, training set from Goodman & Gilman 9th ed.
Data set [2] deals with serum proteins. The data set can be described thus: Percent protein bound in serum (literature % PB data). As to conditions: binary class: highly protein bound (DTC) or not. From the text:
Drugs may bind to a variety of components in the blood, including albumin, a1-acid glyciprotein (AAG), lipoproteins, immunoglobulins, sex hormone binding globulins, and erythrocytes. […] Some foreknowledge of the protein binding characteristics of a molecule would help provide a better estimate of the pharmacodynamics and pharmacokinetics of the molecule. […] In addition, hepatic extraction is directly proportional to fu. […] The maximum oral bioavailability is directly related to the hepatic extraction ratio, which is in part dependent upon the fu. Disease states causing significant drop in serum albumin, e.g. nephrotic syndrome, where serum albumin concentrations are halved, cause a corresponding 2-fold decrease in half-life for clofibrate.
Using the principles of predictive model development described herein, a model for classifying compounds as highly protein bound (>90% bound) or not highly protein bound (<90% bound) was created. The model development methods are thus described below using a protein binding model as one example application. The model development methods of the invention may also be applied to the creation of other prediction models, such as models to predict CYP450 metabolism, inhibition, and activation, as well as p-Glycoprotein efflux.
The method next advances to the process block 14 where a reference (“training”) set of molecules is classified according to the property of interest. The larger the training set of molecules is (>50 preferably), the better the method should perform. Preferably each of the molecules in the training set has a known binary classification for the property of interest. […] For illustration, an example training set of ten molecules for a protein binding prediction model may be as follows:
The method next advances to a process block 16, where a subset of the training set of molecules is chosen such that the subset includes the molecules in the training set that have the desired property of interest. In one embodiment, molecules in this subset are referred to as Desired Target Class (“DTC”) molecules.
The above simplified example includes 10 training dataset molecules. […] The following compounds were excluded because they lacked % PB values or belonged to an unusual structural class: atracurium, auranofin, azathioprine, bleomycin, bretylium, busulfan, capreomycin, carboplatin, carmustine, cisplatin, clemastine, dobutamine, enoxacin, ethanol, foscarnet, gold sodium thiomalate, isosorbide-5-mononitrate, isosorbide dinitrate, levodopa, levonorgestrel, methohexital, methylprednisolone, nalbuphine, naloxone, neostigmine, nitroglycerin, pancuronium, pipecuronium, prednisolone, prednisone, pyridostigmine, scopolamine, tubocurarine, vecuronium.
A test dataset was also assembled to verify model performance.

Data set [3] addresses Human serum albumin (HSA) (Homo sapiens, UniProt P02768). The conditions noted are these: site I warfarin site, site II benzodiazepines/NSAIDS site; cited from earlier work.
The conditions of data set [4]: nephrotic syndrome, serum albumin concentrations halved; cited from earlier work.
Setting [5] is: example training set of ten molecules.
[6] abbreviates: training set (Goodman & Gilman) or PDR test set.

SMILES strings stand for the structures. Like-named read-outs stand apart in the source and are kept apart here.

Sequence of Human serum albumin (HSA) (P02768 25-609): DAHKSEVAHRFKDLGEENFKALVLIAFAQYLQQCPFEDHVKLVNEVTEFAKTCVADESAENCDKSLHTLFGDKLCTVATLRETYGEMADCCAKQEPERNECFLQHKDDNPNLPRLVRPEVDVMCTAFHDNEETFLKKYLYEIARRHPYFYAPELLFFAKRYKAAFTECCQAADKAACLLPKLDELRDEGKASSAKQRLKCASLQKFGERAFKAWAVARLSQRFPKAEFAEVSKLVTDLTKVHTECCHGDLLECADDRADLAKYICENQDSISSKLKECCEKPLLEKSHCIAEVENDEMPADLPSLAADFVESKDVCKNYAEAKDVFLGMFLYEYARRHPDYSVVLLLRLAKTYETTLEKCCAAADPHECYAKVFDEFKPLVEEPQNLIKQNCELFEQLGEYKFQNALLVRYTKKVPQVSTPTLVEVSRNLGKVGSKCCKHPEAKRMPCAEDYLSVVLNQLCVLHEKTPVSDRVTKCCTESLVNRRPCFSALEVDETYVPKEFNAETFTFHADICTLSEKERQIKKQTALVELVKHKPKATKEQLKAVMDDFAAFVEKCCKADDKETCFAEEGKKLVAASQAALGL

On to `CCc1cccc2c3c([nH]c12)C(CC)(CC(=O)O)OCC3` (stereo not shown) [ETODOLAC], for which, in the data set with serum proteins [1], the “% PB” value is 99.1%. As to `CNCCCC1c2ccccc2C=Cc2ccccc21` [PROTRIPTYLINE], in the data set with serum proteins [1], the “% PB” value is recorded as 92%.

Consider `CCC(C)n1ncn(-c2ccc(N3CCN(c4ccc(OCC5COC(Cn6cncn6)(c6ccc(Cl)cc6Cl)O5)cc4)CC3)cc2)c1=O` (stereo not shown) [ITRACONAZOLE], for which, in the data set with serum proteins [1], the “% PB” value is recorded as 99.8%. Consider `O=c1n(CCCN2CCN(c3cccc(Cl)c3)CC2)nc2ccccn12` [TRAZODONE], for which the “% PB” value in the data set on serum proteins [1] is given as 93%.

With `COc1ccc2cc([C@H](C)C(=O)O)ccc2c1` [NAPROXEN], in the data set on serum proteins [2], the Classification is 1 (highly protein bound (>90% bound)). Turning to `O=C1CN=C(c2ccccc2)c2cc(Cl)ccc2N1CC1CC1` [PRAZEPAM], the “% PB” value in the data set with serum proteins [1] was 95.5%. In the case of `Cc1cnc(C(=O)NCCc2ccc(S(=O)(=O)NC(=O)NC3CCCCC3)cc2)cn1` [GLIPIZIDE], in the data set with serum proteins [1], the “% PB” value is recorded as 98.4%. For `O=C1CN=C(c2ccccc2)c2cc(Cl)ccc2N1` [NORDAZEPAM], the “% PB” value in the data set on serum proteins [1] was 97.5%.

Take `O=C1Nc2ccc(Cl)cc2C(c2ccccc2)=NC1O` (stereo not shown) [OXAZEPAM]: the “% PB” value in the data set on serum proteins [1] is 98.8%. On to `CCc1nc(N)nc(N)c1-c1ccc(Cl)cc1` [PYRIMETHAMINE], for which the Classification with serum proteins [2] is given as 0 (not highly protein bound (<90% bound)). Besides, the “% Protein Bound” value with serum proteins [1] (setting [5]) is 87.0%; with serum proteins [1] (setting [6]), 87%. For the compound `CC(C(=O)O)c1ccc(-c2ccccc2)c(F)c1` (stereo not shown) [FLURBIPROFEN], the Classification in the data set with serum proteins [2] is 1 (highly protein bound (>90% bound)). The “% Protein Bound” value with serum proteins [1] (setting [5]) is recorded as 99.5%. Besides, the “% PB” value in the data set with serum proteins [1] is 99.5%. Consider `CC(=O)CC(c1ccccc1)c1c(O)c2ccccc2oc1=O` (stereo not shown) [WARFARIN], for which, in the data set with serum proteins [2], the Classification was 1 (highly protein bound (>90% bound)). For `CCCC(CCC)C(=O)O` [Valproic acid], the HSA binding site entry in data set [3] is “bind to both HSA Sites I and II”.

For `CCOC(=O)C(C)(C)Oc1ccc(Cl)cc1` [CLOFIBRATE], the decrease in half-life in data set [4] is given as 2 fold. Also, the “% PB” value in the data set with serum proteins [1] was 96.5%. For `CN1C(=O)C(O)N=C(c2ccccc2)c2cc(Cl)ccc21` (stereo not shown) [TEMAZEPAM], in the data set with serum proteins [1], the “% PB” value is reported as 97.6%. For `O=C(O)c1cc(-c2ccc(F)cc2F)ccc1O` [DIFLUNISAL], the “% PB” value in the data set with serum proteins [1] is recorded as 99.9%. In the case of `COC(=O)C1=C(C)NC(C)=C(C(=O)OCCN(C)Cc2ccccc2)C1c1cccc([N+](=O)[O-])c1` (stereo not shown) [NICARDIPINE], the “% PB” value in the data set on serum proteins [1] was 99%. Consider `O=C(O)C1N=C(c2ccccc2)c2cc(Cl)ccc2NC1=O` (stereo not shown) [CLORAZEPATE], for which the “% PB” value in the data set with serum proteins [1] is 96.9%. On to `CCCCNc1cc(C(=O)O)cc(S(N)(=O)=O)c1Oc1ccccc1` [BUMETANIDE], for which the “% PB” value in the data set on serum proteins [1] is 99%. Regarding `O=C(c1ccccc1)c1ccc2n1CCC2C(=O)O` (stereo not shown) [KETOROLAC], the “% PB” value in the data set on serum proteins [1] is recorded as 99.2%. For the compound `COCCOC(=O)C1=C(C)NC(C)=C(C(=O)OC(C)C)C1c1cccc([N+](=O)[O-])c1` (stereo not shown) [NIMODIPINE], the “% PB” value in the data set with serum proteins [1] is listed as 98%.

In the case of `NS(=O)(=O)c1cc2c(cc1Cl)NCNS2(=O)=O` [HYDROCHLOROTHIAZIDE], the Classification with serum proteins [2] is given as 0 (not highly protein bound (<90% bound)). Moreover, in the data set on serum proteins [1] (setting [5]), the “% Protein Bound” value is recorded as 58.0%. For the compound `NCCCC[C@H](N[C@@H](CCc1ccccc1)C(=O)O)C(=O)N1CCC[C@H]1C(=O)O` [LISINOPRIL], the Classification in the data set on serum proteins [2] is listed as 0 (not highly protein bound (<90% bound)). As to `COc1ccc2cc(CCC(C)=O)ccc2c1` [NABUMETONE], the “% PB” value in the data set with serum proteins [1] is given as 99%.

Turning to `COC(=O)C1=C(C)NC(C)=C(C(=O)OC(C)C)C1c1cccc2nonc12` (stereo not shown) [ISRADIPINE], the “% PB” value in the data set on serum proteins [1] is listed as 97%. `CC1=C(CC(=O)O)c2cc(F)ccc2/C1=C\c1ccc([S+](C)[O-])cc1` (stereo not shown): the “% PB” value in the data set on serum proteins [1] is listed as 94%.

For `CN(C)c1ccc(O)c2c1C[C@H]1C[C@H]3[C@H](N(C)C)C(O)=C(C(N)=O)C(=O)[C@@]3(O)C(O)=C1C2=O` [MINOCYCLINE], the Classification in the data set on serum proteins [2] is recorded as 0 (not highly protein bound (<90% bound)). In the data set on serum proteins [1] (setting [5]), the “% Protein Bound” value is listed as 76.0%. With `CC(N)C12CC3CC(CC(C3)C1)C2` (stereo not shown) [RIMANTADINE], the Classification with serum proteins [2] is recorded as 0 (not highly protein bound (<90% bound)). For the same compound, in the data set with serum proteins [1] (setting [5]), the “% Protein Bound” value is given as 40.0%. For the compound `O=C1Nc2ccc(Cl)cc2C(c2ccccc2Cl)=NC1O` (stereo not shown) [LORAZEPAM], the “% PB” value in the data set with serum proteins [1] is 91%. For the compound `CCOC(=O)[C@H](CCc1ccccc1)N[C@H]1CCc2ccccc2N(CC(=O)O)C1=O` [BENAZEPRIL], the “% PB” value in the data set with serum proteins [1] is 97%. For the compound `COC(=O)C(C)c1ccc(C(=O)c2cccs2)cc1` (stereo not shown) [suprofen methyl ester], in data set [3], the HSA binding site result is recorded as “binds to HSA site I”. Regarding `CN(C)CCCN1c2ccccc2CCc2ccccc21` [IMIPRAMINE], the “% PB” value in the data set with serum proteins [1] is 90.1%. In the case of `Cc1ccc(-c2nc3ccc(C)cn3c2CC(=O)N(C)C)cc1` [ZOLPIDEM], in the data set on serum proteins [1], the “% PB” value is listed as 92%. Regarding `Clc1cccc(Cl)c1N=C1NCCN1` [CLONIDINE], in the data set with serum proteins [2], the Classification is recorded as 0 (not highly protein bound (<90% bound)). For the same compound, the “% Protein Bound” value in the data set with serum proteins [1] (setting [5]) is reported as 30.0%.

Regarding `CCOC(=O)C1=C(C)NC(C)=C(C(=O)OC)C1c1cccc([N+](=O)[O-])c1` (stereo not shown) [NITRENDIPINE], the “% PB” value with serum proteins [1] is 98%. `COC(=O)[C@H](c1ccccc1Cl)N1CCc2sccc2C1` [clopidogrel]: in the data set with serum proteins [1] (setting [6]), the “% Protein Bound” value is on record as 98%. As for `CCN(CC)CCN1C(=O)CN=C(c2ccccc2F)c2cc(Cl)ccc21` [FLURAZEPAM], the “% PB” value in the data set on serum proteins [1] was 96.6%. On to `CCOC(=O)C1=C(COCCN)NC(C)=C(C(=O)OC)C1c1ccccc1Cl` (stereo not shown) [AMLODIPINE], for which, in the data set with serum proteins [1], the “% PB” value is listed as 93%. Turning to `Fc1ccc([C@@H]2CCNC[C@H]2COc2ccc3c(c2)OCO3)cc1` [PAROXETINE], the “% PB” value with serum proteins [1] is 95%. For the same compound, in the data set on serum proteins [1] (setting [6]), the “% Protein Bound” value is 95%. On to `CCOC(=O)C1=C(C)NC(C)=C(C(=O)OC)C1c1cccc(Cl)c1Cl` (stereo not shown) [FELODIPINE], for which, in the data set with serum proteins [1], the “% PB” value is given as 99.6%. As for `COc1ccc(Cl)cc1C(=O)NCCc1ccc(S(=O)(=O)NC(=O)NC2CCCCC2)cc1` [GLYBURIDE], the “% PB” value in the data set with serum proteins [1] is 99.8%.

Consider `CN1C(=O)CN=C(c2ccccc2)c2cc(Cl)ccc21` [DIAZEPAM], for which, in the data set with serum proteins [2], the Classification is 1 (highly protein bound (>90% bound)). Turning to `NS(=O)(=O)c1cc(C(=O)O)c(NCc2ccco2)cc1Cl` [FUROSEMIDE], in the data set with serum proteins [1], the “% PB” value was 98.8%. As to `CC(C(=O)O)c1ccc(C(=O)c2cccs2)cc1` (stereo not shown) [Suprofen], the HSA binding site result in data set [3] is listed as “binds to HSA site II”. As to `Cc1ccc(C(=O)c2ccc(CC(=O)O)n2C)cc1` [TOLMETIN], the “% PB” value with serum proteins [1] is 99.6%. In the case of `CC(=O)N1CCN(c2ccc(OCC3COC(Cn4ccnc4)(c4ccc(Cl)cc4Cl)O3)cc2)CC1` (stereo not shown) [KETOCONAZOLE], the “% PB” value in the data set on serum proteins [1] is reported as 99%.

`CN1C(C(=O)Nc2ccccn2)=C(O)c2ccccc2S1(=O)=O` [PIROXICAM]: the “% PB” value in the data set on serum proteins [1] is 98.5%. As to `O=c1[nH]c2ccccc2n1C1CCN(CCCC(c2ccc(F)cc2)c2ccc(F)cc2)CC1` [PIMOZIDE], in the data set on serum proteins [1], the “% PB” value is listed as 99%.

The values are drawn from patent publication US7146278B2, “Method of selecting marker molecules for prediction of molecular activity” (Accelrys Software Inc., priority 2001, dated 2006).
